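Method: 48-hour compound exposure of cells in 96-well plates, five concentrations, linear interpolation of endpoints. GI50 = concentration required for 50% inhibition of growth.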 Calls of active or inactive are those of the source. Cut-off read from the data, not from the text of the source: active = GI50 up to about 1.1 µM and inactive = higher.

These results are taken from ChEMBL document CHEMBL1201862, “PubChem BioAssay data set” (2004).

Among the test systems are MOLT-4; NCI-H522; TK-10; SR; EKVX; HCC 2998; Hs-578T; CAKI-1; NCI/ADR-RES; ACHN; OVCAR-4; NCI-H226; MDA-N; SF-295; OVCAR-8; U-251; HCT-15; A549; UACC-62; NCI-H23.
What all share (experiment): NCI tumour cell line growth inhibition, 48 h

With `CC(=O)c1sc2c(c1OC(=O)c1ccc(Cl)cc1Cl)c(=O)n(-c1ccccc1)c(=S)n2-c1ccccc1`, the GI50 was 0.14 µM (active) in the assay with MOLT-4; 1.2 µM (inactive) with NCI-H522; 4.57 µM (inactive) with TK-10; 0.501 µM (active) in the assay on SR; 6.55 µM (inactive) in the assay with EKVX; 6.37 µM (inactive) in the assay on HCC 2998. Moreover, the GI50 is 0.1 µM (active) in the assay on Hs-578T; 1.43 µM (inactive) in the assay on CAKI-1; 1.05 µM (active) in the assay with NCI/ADR-RES; 0.321 µM (active) in the assay with ACHN; 13.2 µM (inactive) in the assay with OVCAR-4; 0.258 µM (active) with NCI-H226. The GI50 in the assay with MDA-N is 0.741 µM (active); with SF-295, 0.267 µM (active); with OVCAR-8 it was 0.418 µM (active); in the assay with U-251, 0.342 µM (active); in the assay on HCT-15, 2.18 µM; in the assay on A549 it was 9.98 µM (inactive). The values for the GI50 in the assay on UACC-62 and in the assay on NCI-H23 were 10.8 µM (inactive) and 5.83 µM (inactive), respectively.

As for `O=C1C(c2c(O)[nH]c3ccc([N+](=O)[O-])cc23)=Nc2ccccc21`, the GI50 is 65.9 µM (inactive) in the assay with MOLT-4; > 100 µM (inactive) in the assay with NCI-H522; 34.6 µM (inactive) in the assay on TK-10; 30.3 µM (inactive) with SR; > 100 µM (inactive) in the assay with EKVX; > 100 µM (inactive) with HCC 2998. The GI50 in the assay with Hs-578T is 56.9 µM (inactive); in the assay on CAKI-1, > 100 µM (inactive); in the assay with NCI/ADR-RES it was > 100 µM (inactive); with ACHN, 40.5 µM (inactive); in the assay on OVCAR-4 it was > 100 µM (inactive); with NCI-H226 it was > 100 µM (inactive). Besides, the GI50 with MDA-N was > 100 µM (inactive); with SF-295, 43 µM (inactive); with OVCAR-8 it was > 100 µM (inactive); in the assay with U-251, 21.2 µM (inactive); in the assay on HCT-15, above 100 µM; in the assay with A549 it was > 100 µM (inactive). For the same compound, the GI50 with UACC-62 and with NCI-H23 was > 100 µM (inactive) throughout.

Take `O=c1c2sc3ccccc3sc=2c(=O)c2c(Cl)c(Cl)c(Cl)c(Cl)c12`: the GI50 in the assay with MOLT-4 was > 100 µM (inactive); in the assay with NCI-H522, > 100 µM (inactive); in the assay with TK-10 it was > 100 µM (inactive); in the assay with SR, > 100 µM (inactive); in the assay on EKVX, > 100 µM (inactive); in the assay with HCC 2998, 96.2 µM (inactive). Also, the GI50 is 38.4 µM (inactive) with Hs-578T; > 100 µM (inactive) in the assay on CAKI-1; > 100 µM (inactive) in the assay with NCI/ADR-RES; > 100 µM (inactive) in the assay with ACHN; > 100 µM (inactive) with OVCAR-4; > 100 µM (inactive) with NCI-H226. Further, the GI50 is > 100 µM (inactive) in the assay with MDA-N; > 100 µM (inactive) in the assay with SF-295; > 100 µM (inactive) in the assay with OVCAR-8; > 100 µM (inactive) with U-251; 39.7 µM in the assay on HCT-15; > 100 µM (inactive) with A549. For the same compound, the GI50 with UACC-62 and with NCI-H23 was > 100 µM (inactive) each time.

Consider `COc1cc(C)c2c(=O)c3ccccc3n(C)c2c1`, for which the GI50 in the assay on MOLT-4 is 29.2 µM (inactive); with NCI-H522, 2.54 µM (inactive); in the assay on TK-10, 40.9 µM (inactive); with SR, 15.6 µM (inactive); in the assay on EKVX, 35 µM (inactive); in the assay on HCC 2998, 45 µM (inactive). Besides, the GI50 in the assay with Hs-578T was 40.4 µM (inactive); in the assay with CAKI-1 it was 31.3 µM (inactive); with NCI/ADR-RES, 30.5 µM (inactive); in the assay with ACHN, 24.3 µM (inactive); in the assay with OVCAR-4, 19.7 µM (inactive); in the assay with NCI-H226, 26.7 µM (inactive). Besides, the GI50 in the assay on MDA-N was 55.6 µM (inactive); in the assay on SF-295 it was 15.5 µM (inactive); in the assay on OVCAR-8, 22.6 µM (inactive); in the assay on U-251 it was 20 µM (inactive); in the assay on HCT-15 it was 22.3 µM; with A549, 38.5 µM (inactive). Also, the GI50 in the assay with UACC-62 is 20.3 µM (inactive); in the assay with NCI-H23, 24.3 µM (inactive).

For `Cn1c(=O)n2n(c1=O)Cc1cccc3cccc(c13)C2`, the GI50 with MOLT-4, with NCI-H522, with TK-10, with SR, with EKVX and with HCC 2998 was > 100 µM (inactive) each time. Also, the GI50 in the assay on Hs-578T, with CAKI-1, with NCI/ADR-RES, in the assay with ACHN, in the assay on OVCAR-4 and with NCI-H226 was > 100 µM (inactive) each time. In addition, the GI50 in the assay on MDA-N was > 100 µM (inactive); in the assay with SF-295, > 100 µM (inactive); with OVCAR-8, > 100 µM (inactive); with U-251, > 100 µM (inactive); in the assay on HCT-15 it was above 100 µM; in the assay on A549, > 100 µM (inactive). The GI50 with UACC-62 and in the assay with NCI-H23 was > 100 µM (inactive) each time.

Take `COC1=C(NC(C)=O)C(=O)c2nc3n(c2C1=O)CCC3`: the GI50 in the assay on MOLT-4 was 4.06 µM (inactive); in the assay on NCI-H522, 22.5 µM (inactive); in the assay with TK-10, 30.3 µM (inactive); in the assay with SR, 36.9 µM (inactive); with EKVX, 19.5 µM (inactive); in the assay with HCC 2998, 23.7 µM (inactive). For the same compound, the GI50 in the assay on Hs-578T is 30.8 µM (inactive); in the assay on CAKI-1, 18.3 µM (inactive); with NCI/ADR-RES, 19.5 µM (inactive); in the assay on ACHN it was 19.9 µM (inactive); in the assay with OVCAR-4 it was 16.7 µM (inactive); in the assay on NCI-H226, 26.7 µM (inactive). In addition, the GI50 in the assay with MDA-N was 2.83 µM (inactive); in the assay on SF-295, 20.5 µM (inactive); in the assay with OVCAR-8, 16.7 µM (inactive); in the assay with U-251, 23.8 µM (inactive); in the assay with HCT-15, 23.4 µM; with A549, 27.3 µM (inactive). For the same compound, the results for the GI50 in the assay with UACC-62 and in the assay on NCI-H23 were 18.2 µM (inactive) and 20.4 µM (inactive), respectively.

For the compound `Cc1ccccc1N(C)S(=O)(=O)c1ccccc1[N+](=O)[O-]`, the GI50 is 27.9 µM (inactive) in the assay with MOLT-4; 36.1 µM (inactive) in the assay with NCI-H522; > 100 µM (inactive) in the assay with TK-10; 36.6 µM (inactive) in the assay with SR; 32.2 µM (inactive) with EKVX; 51.3 µM (inactive) in the assay on HCC 2998. The GI50 was 66.1 µM (inactive) in the assay with Hs-578T; 59.3 µM (inactive) in the assay on CAKI-1; 25.1 µM (inactive) in the assay with NCI/ADR-RES; 81.8 µM (inactive) with ACHN; 67.6 µM (inactive) in the assay with OVCAR-4; 33.1 µM (inactive) in the assay on NCI-H226. The GI50 in the assay on MDA-N is 45.5 µM (inactive); with SF-295, 42.5 µM (inactive); with OVCAR-8, 75 µM (inactive); in the assay on U-251, 36.3 µM (inactive); in the assay on HCT-15, 57.9 µM; in the assay with A549 it was 45.9 µM (inactive). The GI50 was 38.8 µM (inactive) in the assay on UACC-62 and 31.5 µM (inactive) in the assay on NCI-H23.

Take `COc1ccc2c(c1)C(=O)C1(C2)[C@H](c2ccccc2)C2C(=O)c3cc(OC)ccc3C2[C@H]1c1ccccc1` (stereo not given in full): the GI50 in the assay on MOLT-4, in the assay on NCI-H522, with TK-10, with SR, with EKVX and with HCC 2998 was > 100 µM (inactive) each time. In addition, the GI50 with Hs-578T was 74.6 µM (inactive); with CAKI-1, 1.75 µM (inactive); in the assay on NCI/ADR-RES, > 100 µM (inactive); with ACHN, > 100 µM (inactive); in the assay with OVCAR-4 it was > 100 µM (inactive); in the assay on NCI-H226, > 100 µM (inactive). In addition, the GI50 was > 100 µM (inactive) in the assay with MDA-N; > 100 µM (inactive) in the assay on SF-295; > 100 µM (inactive) in the assay with OVCAR-8; > 100 µM (inactive) with U-251; above 100 µM with HCT-15; > 100 µM (inactive) with A549. Moreover, the GI50 in the assay with UACC-62 was > 100 µM (inactive); in the assay with NCI-H23, 15.1 µM (inactive).

For `Cc1ccc2[nH]c3c(c2c1)C1CCC(C(C)(C)C)CC1C1C(=O)N(c2ccc(Oc4ccccc4)cc2)C(=O)C31` (stereo not given), the GI50 in the assay with MOLT-4 is 2.77 µM (inactive); in the assay on NCI-H522 it was 13.2 µM (inactive); in the assay with TK-10 it was 20 µM (inactive); in the assay with SR, 1.05 µM (active); in the assay with EKVX, 27 µM (inactive); in the assay with HCC 2998, 39.3 µM (inactive). Moreover, the GI50 is 2.81 µM (inactive) in the assay with Hs-578T; 12.7 µM (inactive) with CAKI-1; 20.5 µM (inactive) in the assay with NCI/ADR-RES; 22.6 µM (inactive) with ACHN; 14.2 µM (inactive) with OVCAR-4; 29.4 µM (inactive) with NCI-H226. In addition, the GI50 was 50 µM (inactive) in the assay on MDA-N; 26.6 µM (inactive) in the assay on SF-295; 8.73 µM (inactive) in the assay on OVCAR-8; 5.61 µM (inactive) in the assay with U-251; 56.8 µM in the assay with HCT-15; 16.3 µM (inactive) in the assay with A549. The GI50 in the assay with UACC-62 is 47.1 µM (inactive); with NCI-H23 it was 19.3 µM (inactive).

Take `CCC/C(Cl)=N/OC(=O)Nc1cccc(F)c1`: the GI50 is 1.89 µM (inactive) in the assay with MOLT-4; 0.309 µM (active) in the assay with NCI-H522; 2.38 µM (inactive) in the assay with TK-10; 0.453 µM (active) in the assay with SR; 2.46 µM (inactive) in the assay on EKVX; 15.6 µM (inactive) with HCC 2998. For the same compound, the GI50 was 9.75 µM (inactive) in the assay on Hs-578T; 3.33 µM (inactive) in the assay with CAKI-1; 6.04 µM (inactive) in the assay on NCI/ADR-RES; 1.55 µM (inactive) with ACHN; 9.79 µM (inactive) with OVCAR-4; 14.6 µM (inactive) in the assay on NCI-H226. The GI50 in the assay with MDA-N is 9.46 µM (inactive); in the assay on SF-295 it was 17.5 µM (inactive); in the assay with OVCAR-8, 16 µM (inactive); in the assay with U-251, 17.3 µM (inactive); in the assay with HCT-15 it was 1.85 µM; in the assay with A549 it was 19.1 µM (inactive). The GI50 with UACC-62 is 14.4 µM (inactive); in the assay on NCI-H23 it was 16.7 µM (inactive).
